What was measured:
[1] = test system: carrageenan-induced swelling of the right hind paw; assay: Anti-inflammatory effects: inhibition of carrageenan-induced hind paw swelling; assay type: in vivo, Wistar rats; conditions: oral, 60 min before carrageenan, foot volume 3 hours later
Description: After fasting a group of five Wistar rats of 6 weeks old for 18 hours, each test compound dissolved or suspended in a 0.5% solution of sodium carboxymethylcellulose (CMC-Na) was administered orally. Sixty minutes after the administration of the test compound, 0.1 ml of a 1% carrageenan solution was injected into subplanter surface of the right hind paw of each rat. The foot volume (A) was measured 3 hours later. From the foot volume (B) before the administration of carrageenan, the percent swelling ((A-B)/B×100) was calculated and compared with those of control rats.
Inhibition (%)= [formula]

[2] = test system: spontaneously-beating atrial muscle; assay: Cardiotonic effects: contractile force and heart rate of isolated spontaneously beating atria; parameters: species or system Hartley male guinea pig; conditions: cumulative
Description: The heart of a Hartley male guinea pig having a body weight of 500-800 g was removed. Its atrial muscles were isolated in Krebs-Henseleit's solution. A spontaneously-beating atrial muscle was suspended, in a bath containing 20 ml of Krebs-Henseleit's solution gassed with 95% O2 +5% CO2 at 32° C. Thereafter, the contractile force and its heart rate were measured. After stabilization, test compounds which were dissolved in a small amount of 1N hydrochloric acid or 0.1N hydrochloric acid and then diluted with a physiological saline, were administered cumulatively ([…]) to evaluate effects on the contractile force. The maximum percent change in increase of the contractile force induced by test compounds was determined and regarded as an index for cardiotonic (positive inotropic) effects. Heart rate increasing or decreasing effects (positive or negative chronotropism) were also observed.

Acute toxicity, mouse = conditions: in vivo, po
[3] = test system: ouabain-induced arrhythmia; assay: Antiarrhythmic effects: amount of ouabain required to induce arrhythmia; assay type: in vivo, Hartley male guinea pigs; conditions: 10 mg/kg i.v., ouabain infused at 4 μg/kg/min; for amount of ouabain required to induce unequal intervals of R-R wave: control 59.2; for amount of ouabain required to induce ventricular extrasystole or A-V block: control 80.5; for amount of ouabain required to induce ventricular extrasystole or A-V block / amount of ouabain required to induce ventricular fibrillation / amount of ouabain required to induce cardiac arrest: in µg/kg (unit assumed); for amount of ouabain required to induce ventricular fibrillation: control 170.0; for amount of ouabain required to induce cardiac arrest: control 246.6
Description: Using a group of five Hartley male guinea pigs (body weights: 530-990 g), their electrocardiograms were recorded from a limbic lead II under anesthesia with urethane 1.2 g/kg i.p. to investigate the antiarrhythmic effects. Namely, each test compound dissolved in 0.1N hydrochloric acid and diluted with a physiological saline was intravenously administered at a dose of 10 mg/kg. Immediately after the administration of the test compound, ouabain was continuously infused at a rate of 4 μg/kg/min through a polyethylene cannula inserted in the jugular vein of the guinea pigs so as to induce arrhythmia. The antiarrhythmic effects were judged from the amount of ouabain required to induce unequal intervals of R-R wave, ventricular extrasystole or A-V block, ventricular fibrillation and cardiac arrest.

Acute toxicity, rat = conditions: in vivo, po

CC(=O)Nc1cc2cccnc2c(NCC(O)CO)n1 (stereo not drawn) [compound 9]
Inhibition (%) ([1]; 30 mg/kg): 27.1%

Nc1cc2cccnc2c(N2CCOCC2)n1 [Compound No. 3, 6-amino-8-morpholino-1,7-naphthyridine]
Inhibition (%) ([1]; 100 mg/kg): 55.0%

CCCCCCCC(=O)Nc1cc2cccnc2c(N2CCN(CCO)CC2)n1 [compound 25]
Inhibition (%) ([1]; 10 mg/kg): 44.6%

CCOc1nc(NC(C)=O)cc2cccnc12 [compound 34]
Chronotropy, % of Control (in parentheses) ([2]; 3 × 10^-5 g/ml): 25.7%
Inotropy, % of Control ([2]; 3 × 10^-5 g/ml): 38.7%
Chronotropy, % of Control (in parentheses) ([2]; 3 × 10^-6 g/ml): 10.3%
Inotropy, % of Control ([2]; 3 × 10^-6 g/ml): 13.3%
Chronotropy, % of Control (in parentheses) ([2]; 10^-4 g/ml): 46.0%
Inotropy, % of Control ([2]; 10^-4 g/ml): 89.2%
Chronotropy, % of Control (in parentheses) ([2]; 10^-5 g/ml): 18.5%
Inotropy, % of Control ([2]; 10^-5 g/ml): 24.9%
Chronotropy, % of Control (in parentheses) ([2]; 10^-6 g/ml): 5.3%
Inotropy, % of Control ([2]; 10^-6 g/ml): 6.3%

CC(=O)Nc1cc2cccnc2c(NCc2cccnc2)n1 [Compound No. 13]
Chronotropy, % of Control (in parentheses) ([2]; 3 × 10^-5 g/ml): 1.9%
Inotropy, % of Control ([2]; 3 × 10^-5 g/ml): 52.3%
Chronotropy, % of Control (in parentheses) ([2]; 3 × 10^-6 g/ml): 1.6%
Inotropy, % of Control ([2]; 3 × 10^-6 g/ml): 8.7%
Chronotropy, % of Control (in parentheses) ([2]; 10^-4 g/ml): -11.8%
Inotropy, % of Control ([2]; 10^-4 g/ml): 92.9%
Chronotropy, % of Control (in parentheses) ([2]; 10^-5 g/ml): 3.1%
Inotropy, % of Control ([2]; 10^-5 g/ml): 24.6%
Chronotropy, % of Control (in parentheses) ([2]; 10^-6 g/ml): 0.2%
Inotropy, % of Control ([2]; 10^-6 g/ml): 2.6%
LD50 (Acute toxicity, mouse): > 500 mg/kg

Nc1cc2cccnc2c(N2CCN(CCO)CC2)n1 [Compound No. 4]
Inhibition (%) ([1]; 30 mg/kg): 54.0%
amount of ouabain required to induce unequal intervals of R-R wave [3]: 59.1 µg/kg
amount of ouabain required to induce ventricular extrasystole or A-V block [3]: 78.9
amount of ouabain required to induce ventricular fibrillation [3]: 216.5
amount of ouabain required to induce cardiac arrest [3]: 277.5
LD50 (Acute toxicity, mouse): > 1000 mg/kg

CC(=O)Nc1cc2cccnc2c(N2CCN(CCO)CC2)n1 [Compound No. 22, 6-acetamido-8-[4-(2-hydroxyethyl)-1-piperazinyl]-1,7-naphthyridine]
Inhibition (%) ([1]; 10 mg/kg): 42.4%
amount of ouabain required to induce unequal intervals of R-R wave [3]: 69.6 µg/kg
amount of ouabain required to induce ventricular extrasystole or A-V block [3]: 109.6
amount of ouabain required to induce ventricular fibrillation [3]: 285.4
amount of ouabain required to induce cardiac arrest [3]: 399.3
LD50 (Acute toxicity, mouse): 1600 mg/kg
LD50 (Acute toxicity, rat): > 3000 mg/kg

CNc1nc(NC(C)=O)cc2cccnc12 [compound 5]
Chronotropy, % of Control (in parentheses) ([2]; 3 × 10^-5 g/ml): 8.6%
Inotropy, % of Control ([2]; 3 × 10^-5 g/ml): 29.0%
Chronotropy, % of Control (in parentheses) ([2]; 3 × 10^-6 g/ml): 3.6%
Inotropy, % of Control ([2]; 3 × 10^-6 g/ml): 8.6%
Chronotropy, % of Control (in parentheses) ([2]; 10^-4 g/ml): 13.0%
Inotropy, % of Control ([2]; 10^-4 g/ml): 59.1%
Chronotropy, % of Control (in parentheses) ([2]; 10^-5 g/ml): 5.9%
Inotropy, % of Control ([2]; 10^-5 g/ml): 12.9%
Chronotropy, % of Control (in parentheses) ([2]; 10^-6 g/ml): 1.7%
Inotropy, % of Control ([2]; 10^-6 g/ml): 4.7%

CC(=O)Nc1cc2cccnc2c(N2CCN(C)CC2)n1 [compound 19]
amount of ouabain required to induce unequal intervals of R-R wave [3]: 68.9 µg/kg
amount of ouabain required to induce ventricular extrasystole or A-V block [3]: 146.0
amount of ouabain required to induce cardiac arrest [3]: 392.1

CC(=O)Nc1cc2cccnc2c(N(C)C)n1 [Compound No. 16]
Chronotropy, % of Control (in parentheses) ([2]; 3 × 10^-5 g/ml): 7.0%
Inotropy, % of Control ([2]; 3 × 10^-5 g/ml): 36.8%
Chronotropy, % of Control (in parentheses) ([2]; 3 × 10^-6 g/ml): 1.6%
Inotropy, % of Control ([2]; 3 × 10^-6 g/ml): 4.5%
Chronotropy, % of Control (in parentheses) ([2]; 10^-4 g/ml): 19.0%
Inotropy, % of Control ([2]; 10^-4 g/ml): 103.2%
Chronotropy, % of Control (in parentheses) ([2]; 10^-5 g/ml): 3.3%
Inotropy, % of Control ([2]; 10^-5 g/ml): 12.5%
LD50 (Acute toxicity, mouse): > 500 mg/kg

CC(=O)Nc1cc2cccnc2c(NCCCO)n1 [Compound No. 8]
Chronotropy, % of Control (in parentheses) ([2]; 3 × 10^-5 g/ml): 6.8%
Inotropy, % of Control ([2]; 3 × 10^-5 g/ml): 33.4%
Chronotropy, % of Control (in parentheses) ([2]; 3 × 10^-6 g/ml): 2.7%
Inotropy, % of Control ([2]; 3 × 10^-6 g/ml): 9.6%
Chronotropy, % of Control (in parentheses) ([2]; 10^-4 g/ml): 12.9%
Inotropy, % of Control ([2]; 10^-4 g/ml): 64.1%
Chronotropy, % of Control (in parentheses) ([2]; 10^-5 g/ml): 4.0%
Inotropy, % of Control ([2]; 10^-5 g/ml): 16.4%
Chronotropy, % of Control (in parentheses) ([2]; 10^-6 g/ml): 1.1%
Inotropy, % of Control ([2]; 10^-6 g/ml): 4.1%

From patent publication US4659710A, “1,7-Naphthyridine derivatives and pharmaceutical compositions” (SS Pharmaceutical Co., Ltd., priority 1985, dated 1987)
